# US20200179380A1, “SOLUTE AND SOLUTE MIXTURE, AS WELL AS A COMPOSITION COMPRISING AT LEAST ONE SOLUTE, FOR USE IN THE PREVENTION OR TREATMENT OF COSMETIC OR PATHOLOGIC EFFLORESCENCES CAUSED BY AIRBORNE PARTICLES” (bitop AG, priority 2014, published 2020)
# Values joined by “and” are separate entries in the source; they are usually repeats but may differ in a detail not shown here. Equal entries are not always repeated. Where two headings read alike, the source gives them in different places.
# Experiments:
# Format in all cases: cell-based, human
# POMC gene = POMC gene expression (real-time PCR, relative to 18s-rRNA) in keratinocytes exposed to model particles; settings: for inhibition at 2000 µM / activity at 2000 µM: Homo sapiens, Keratinocyte, 2 mM S-ectoine; for activity at 2000 µM: read-out: POMC Remaining activity %; for POMC expression ±S-ectoine mean ± SD: 24 h pretreatment with 2 mM S-ectoine, untreated = 1; for POMC expression induced by model particles after ectoine pretreatment (in words): Printex90, Huber 990, SRM1650, SRM2975, pretreatment with 2 mM ectoine for 24 hours
# MMP1 gene = MMP1 gene expression (real-time PCR, relative to 18s-rRNA) in keratinocytes exposed to model particles; settings: for inhibition at 2000 µM / activity at 2000 µM: Homo sapiens, Keratinocyte, 2 mM S-ectoine; for activity at 2000 µM: read-out: MMP1 Remaining activity %; for MMP1 expression ±S-ectoine mean ± SD: 24 h pretreatment with 2 mM S-ectoine, untreated = 1
# Method: The model particles were suspended in phosphate buffered saline solution and treated with ultrasound for 1 minute ([…]90, SRM1650 and SRM2975) or 90 seconds (Huber990). Subsequently, addition to keratinocytes was done immediately. […] The incubation time of keratinocytes under the influence of model particles was 24 hours. Human epidermal keratinocytes were taken from healthy patients during abdominoplasty or breast reduction with the consent of the patients. The tissue donors originate in Asia or were of Caucasian origin. The keratinocytes isolated from the tissues were cultivated in Keratinocyte-SFM (Gibco®, Life Technologies GmbH, Darmstadt, Germany). The medium was enriched by 5 mg/L of human recombinant epidermal growth factor (EGF), 50 mg/L pituitarium which is an extract from pituitary gland from bovine (Bovine Pituitary Extract, BPE), 1% L-glutamine, 1% streptomycin/amphotericin B (Invitrogen, Karlsruhe, Germany). The cultivation was done at humid atmosphere in the presence of 5% CO2. Subconfluent keratinocytes were transferred to sample vessels having 12 sample wells (12-well plates), and were each cultivated in the sample wells. Treatment with the model particles was also done in the sample wells. […] After an incubation time of 24 hours in the presence of the model particles, RNA was isolated from the keratinocytes and relative RNA content was determined. The expression of proinflammatory gene ICAM-1, POMC gene encoding for proopiomelanocortin, MMP1 gene encoding for a human collagenase, and Cyp1a1 encoding for a phase-I-enzyme of Cytochrome P450 superfamily was investigated as a marker for the influence of the model particles on skin condition. The collagenase encoded by MMP1 gene ranks among the matrix metalloproteases and cleaves the peptide bond between proline and other amino acids of collagen I, II, III, VII and X, thereby degrading the collagen. Collagenases and, in particular, the MMP1 collagenase are involved in tissue remodeling and biological processes of the skin, such ach morphogenesis or tumor growth (benign or malign tumor formation). Thus, increased expression of MMP1 gene is a proof for increased activity of the skin cells, in particular keratinocytes. Increased MMP1 gene expression can be an indication of excessive cell growth and, thereby, of benign or malign carcinogenesis. The total RNA content was determined according to […] et al. ([…]-Beck […], Brenden H, […]. “Bioactive molecules from the Blue Lagoon: in vitro and in vivo assessment of silica mud and microalgae extracts for their effects on skin barrier function and prevention of skin ageing”. Exp Dermatol 2008 17:771.). For this purpose, the total RNA was isolated using RNeasy Total RNA Kits (Qiagen, Hilden; Germany). The RNA concentration was photometrically determined at 260/280 nm (Biophotometer, Eppendorf, Hamburg, Germany). Aliquots of total RNA of 100 ng were used for first strand cDNA synthesis using Superscript® III for the transcription step using random primers (Invitrogen, Karlsruhe, Germany). […] For the total RNA content a specific primer for the proof of 18s rRNA was designed. Independent experiments were performed with a triple determination in each case, and the mean was determined. PCR reaction was done using CFX384 TouchTM Real-Time PCR Detection System (Bio-Rad, München, Germany). In order to fluorescent marking SybrGreen-Mix was used (Thermo Fisher Scientific, St. Leon-Rot, Germany). For each experiment three samples, respectively, were determined in duplicate, and the mean was determined. The PCR protocol comprised 46 cycles, each cycle 15 minutes at 94° C. (activation of heat-activating taq polymerase) 10 seconds at 95° C. (denaturation), 20 seconds at 55° C. (annealing), 20 seconds at 72° C. (elongation). Likewise, for comparison of relative expression the expression of untreated keratinocytes was investigated. […] Methods 25: 402-408). […] The data underlying the statistical analysis are not shown here.
# Cyp1a1 gene = Cyp1a1 gene expression (real-time PCR, relative to 18s-rRNA) in keratinocytes exposed to model particles; settings: for inhibition at 2000 µM / activity at 2000 µM: Homo sapiens, Keratinocyte, 2 mM S-ectoine; for activity at 2000 µM: read-out: Cyp1a1 Remaining activity %
# Method: The model particles were suspended in phosphate buffered saline solution and treated with ultrasound for 1 minute ([…]90, SRM1650 and SRM2975) or 90 seconds (Huber990). Subsequently, addition to keratinocytes was done immediately. […] The incubation time of keratinocytes under the influence of model particles was 24 hours. Human epidermal keratinocytes were taken from healthy patients during abdominoplasty or breast reduction with the consent of the patients. The tissue donors originate in Asia or were of Caucasian origin. The keratinocytes isolated from the tissues were cultivated in Keratinocyte-SFM (Gibco®, Life Technologies GmbH, Darmstadt, Germany). The medium was enriched by 5 mg/L of human recombinant epidermal growth factor (EGF), 50 mg/L pituitarium which is an extract from pituitary gland from bovine (Bovine Pituitary Extract, BPE), 1% L-glutamine, 1% streptomycin/amphotericin B (Invitrogen, Karlsruhe, Germany). The cultivation was done at humid atmosphere in the presence of 5% CO2. Subconfluent keratinocytes were transferred to sample vessels having 12 sample wells (12-well plates), and were each cultivated in the sample wells. Treatment with the model particles was also done in the sample wells. […] After an incubation time of 24 hours in the presence of the model particles, RNA was isolated from the keratinocytes and relative RNA content was determined. The expression of proinflammatory gene ICAM-1, POMC gene encoding for proopiomelanocortin, MMP1 gene encoding for a human collagenase, and Cyp1a1 encoding for a phase-I-enzyme of Cytochrome P450 superfamily was investigated as a marker for the influence of the model particles on skin condition. The enzyme encoded by Cyp1a1 gene ranks among the group of phase-I-P450-Cytochrome enzymes and mediates metabolism of drugs, foreign substances and environmental toxins. The Cy1a1 enzyme is a monooxygenase and responsible for metabolizing the afore-mentioned compounds. The protein is encoded in endoplasmic reticulum and its expression can severely be induced by polycyclic aromatic hydrocarbons. The enzyme encoded by Cyp1a1 metabolizes environmental noxae, in particular polycyclic aromatic hydrocarbons, into cancer-causing intermediates. Cyp1a2 is a family member related to Cyp1a1. Increased Cyp1a1 expression, and, in particular, increased Cyp1a2 expression, thus proves detoxification reaction. The total RNA content was determined according to […] et al. ([…]-Beck […], Brenden H, […]. “Bioactive molecules from the Blue Lagoon: in vitro and in vivo assessment of silica mud and microalgae extracts for their effects on skin barrier function and prevention of skin ageing”. Exp Dermatol 2008 17:771.). For this purpose, the total RNA was isolated using RNeasy Total RNA Kits (Qiagen, Hilden; Germany). The RNA concentration was photometrically determined at 260/280 nm (Biophotometer, Eppendorf, Hamburg, Germany). Aliquots of total RNA of 100 ng were used for first strand cDNA synthesis using Superscript® III for the transcription step using random primers (Invitrogen, Karlsruhe, Germany). […] For the total RNA content a specific primer for the proof of 18s rRNA was designed. Independent experiments were performed with a triple determination in each case, and the mean was determined. PCR reaction was done using CFX384 TouchTM Real-Time PCR Detection System (Bio-Rad, München, Germany). In order to fluorescent marking SybrGreen-Mix was used (Thermo Fisher Scientific, St. Leon-Rot, Germany). For each experiment three samples, respectively, were determined in duplicate, and the mean was determined. […] (activation of heat-activating taq polymerase) 10 seconds at 95° C. (denaturation), 20 seconds at 55° C. (annealing), 20 seconds at 72° C. (elongation). Likewise, for comparison of relative expression the expression of untreated keratinocytes was investigated. […] Methods 25: 402-408). […] The data underlying the statistical analysis are not shown here.
# [1] = Printex90, Huber 990, SRM1650, SRM2975, pretreatment with 2 mM ectoine
smiles,measurement,setting,value
"CC1=N[C@H](C(=O)O)CCN1 [S-ectoine, (S)-1,4,5,6-tetrahydro-2-methyl-4-pyrimidine carboxylic acid]",inhibition at 2000 µM,POMC gene; Huber990 particles,100%
same,activity at 2000 µM,POMC gene; Huber990 particles,0%
same,inhibition at 2000 µM,POMC gene; Printex90 particles,100%
same,activity at 2000 µM,POMC gene; Printex90 particles,0%
same,inhibition at 2000 µM,POMC gene; SRM1650 particles,99%
same,activity at 2000 µM,POMC gene; SRM1650 particles,1%
same,inhibition at 2000 µM,POMC gene; SRM2975 particles,100%
same,activity at 2000 µM,POMC gene; SRM2975 particles,0%
same,POMC expression ±S-ectoine mean ± SD,POMC gene; Huber990 particles,0.83 ± 0.04+
same,POMC expression induced by model particles after ectoine pretreatment (in words),POMC gene,significant inhibition
same,POMC expression induced by model particles after ectoine pretreatment (in words),POMC gene; listed as ectoine,inhibited
same,POMC expression ±S-ectoine mean ± SD,POMC gene; Printex90 particles,0.88 ± 0.05+
same,POMC expression ±S-ectoine mean ± SD,POMC gene; SRM1650 particles,1.01 ± 0.05+
same,POMC expression ±S-ectoine mean ± SD,POMC gene; SRM2975 particles,0.99 ± 0.08+
same,inhibition at 2000 µM,MMP1 gene; Huber990 particles,42%
same,activity at 2000 µM,MMP1 gene; Huber990 particles,58%
same,inhibition at 2000 µM,MMP1 gene; SRM1650 particles,26%
same,activity at 2000 µM,MMP1 gene; SRM1650 particles,74%
same,MMP1 expression induced by model particles after ectoine pretreatment (in words),MMP1 gene; [1],inhibited
same,MMP1 expression ±S-ectoine mean ± SD,MMP1 gene; Printex90 particles,0.82 ± 0.10
same,MMP1 expression ±S-ectoine mean ± SD,MMP1 gene; SRM2975 particles,1.28 ± 0.22
same,inhibition at 2000 µM,Cyp1a1 gene; Huber990 particles,57%
same,activity at 2000 µM,Cyp1a1 gene; Huber990 particles,43%
same,inhibition at 2000 µM,Cyp1a1 gene; Printex90 particles,70%
same,activity at 2000 µM,Cyp1a1 gene; Printex90 particles,30%
same,inhibition at 2000 µM,Cyp1a1 gene; SRM1650 particles,46%
same,activity at 2000 µM,Cyp1a1 gene; SRM1650 particles,54%
same,inhibition at 2000 µM,Cyp1a1 gene; SRM2975 particles,41%
same,activity at 2000 µM,Cyp1a1 gene; SRM2975 particles,59%
same,Cyp1a1 expression induced by model particles after ectoine pretreatment (in words),Cyp1a1 gene; [1],inhibited
same,Cyp1a1 expression ±S-ectoine mean ± SD,"Cyp1a1 gene; Printex90 particles, 24 h pretreatment with 2 mM S-ectoine, untreated = 1",1.19 and 1.19 ± 0.29
